Structures are written as SMILES.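 The compound was tested at five concentrations on cells cultured in 96-well plates, with a 48-hour exposure period. GI50: concentration for 50% inhibition of growth.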 Activity calls are given as the source filed them. No stated cut-off is given here; in the data, active = GI50 up to about 1.1 µM and inactive = higher.

The source of these data is ChEMBL document CHEMBL1201862, “PubChem BioAssay data set” (2004).

Test systems include BT-549; SF-268; T47D; MDA-MB-231; MDA-MB-435; HT-29; SK-MEL-28; HOP-92; K562; HCC 2998; 786-0; NCI-H23; MCF7; OVCAR-5; LOX IMVI; NCI-H460; RXF 393.
Common to all, as to assay: NCI anticancer screen, dose series, 48 h

As for `Cc1ccc2c(c1)C(=O)/C(=N/Nc1ccc(Cl)cc1)CCO2`, the GI50 with BT-549 was > 100 µM (inactive); with SF-268, > 100 µM (inactive); in the test with T47D, 13.3 µM (inactive); in the test with MDA-MB-231 it was > 100 µM (inactive); with MDA-MB-435 it was 71 µM (inactive); in the test with HT-29, 26.4 µM (inactive). The GI50 is > 100 µM (inactive) in the test on SK-MEL-28; 72.4 µM (inactive) with HOP-92; 28 µM (inactive) with K562; 54.1 µM (inactive) in the test with HCC 2998; 37.1 µM (inactive) in the test with 786-0; > 100 µM (inactive) in the test with NCI-H23. The GI50 is 58.7 µM (inactive) in the test on MCF7, 69.7 µM (inactive) in the test with OVCAR-5, 35.2 µM (inactive) with LOX IMVI and 92.9 µM (inactive) in the test with NCI-H460.
Turning to `O=c1cc(NNc2cccc3ccccc23)[nH]c(=O)[nH]1`, the GI50 in the test with BT-549 is 16.4 µM (inactive); with SF-268 it was 16.4 µM (inactive); in the test with T47D, 10.2 µM (inactive); in the test with MDA-MB-231, 13.3 µM (inactive); in the test with MDA-MB-435, 17.1 µM (inactive); with HT-29, 17.6 µM (inactive). The GI50 in the test with SK-MEL-28 was 18.6 µM (inactive); with HOP-92, 17.4 µM (inactive); with K562, 12.9 µM (inactive); in the test on HCC 2998, 20 µM (inactive); with 786-0 it was 6.12 µM (inactive); in the test with NCI-H23 it was 15.3 µM (inactive). Moreover, the GI50 was 17.9 µM (inactive) in the test with RXF 393; 1.69 µM (inactive) in the test on MCF7; 17.2 µM (inactive) in the test on OVCAR-5; 13.6 µM (inactive) in the test on LOX IMVI; 18.8 µM (inactive) in the test on NCI-H460.
Take `Cc1cccc2c1CC(C1OC(=O)c3ccccc31)C2=O` (stereo unspecified): the GI50 with BT-549 is > 100 µM (inactive); with SF-268 it was > 100 µM (inactive); in the test on T47D, > 100 µM (inactive); in the test with MDA-MB-231, > 100 µM (inactive); in the test with MDA-MB-435, > 100 µM (inactive); with HT-29, 48.5 µM (inactive). In addition, the GI50 in the test with SK-MEL-28, in the test on HOP-92, with K562, in the test with HCC 2998, with 786-0 and in the test with NCI-H23 was > 100 µM (inactive) each time. The GI50 in the test with RXF 393, in the test with MCF7, with OVCAR-5, in the test on LOX IMVI and in the test on NCI-H460 was > 100 µM (inactive) throughout.
As for `Cc1ccc(N)c(S)c1`, the GI50 is 18.6 µM (inactive) in the test on BT-549; 20.8 µM (inactive) in the test on SF-268; 14.8 µM (inactive) with T47D; 17.1 µM (inactive) with MDA-MB-231; 19 µM (inactive) with MDA-MB-435; 19.4 µM (inactive) with HT-29. The GI50 is 27.5 µM (inactive) in the test with SK-MEL-28; 16.6 µM (inactive) in the test with HOP-92; 28.6 µM (inactive) in the test on K562; 32.1 µM (inactive) in the test with HCC 2998; 16.1 µM (inactive) in the test with 786-0; 17.7 µM (inactive) in the test on NCI-H23. Moreover, the GI50 was 16.8 µM (inactive) in the test with RXF 393; 18.5 µM (inactive) in the test on MCF7; 22.3 µM (inactive) in the test with OVCAR-5; 16.4 µM (inactive) in the test with LOX IMVI; 22 µM (inactive) in the test on NCI-H460.
On to `CC1=C(C)C2(C#N)C(=O)N3C(=NC(c4ccccc4)NC3c3ccccc3)C2(C#N)C(c2ccccc2)N1` (stereo unspecified), for which the GI50 in the test with BT-549, with SF-268, in the test with T47D, in the test on MDA-MB-231, with MDA-MB-435 and in the test on HT-29 was > 100 µM (inactive) each time. The GI50 with SK-MEL-28, in the test on HOP-92, in the test with K562, with HCC 2998, in the test with 786-0 and with NCI-H23 was > 100 µM (inactive) throughout. Further, the GI50 in the test on RXF 393, in the test on MCF7, with OVCAR-5, with LOX IMVI and with NCI-H460 was > 100 µM (inactive) throughout.
As for `CCOC(=O)O/N=C1/C(=C2/C(=O)Nc3ccccc32)Nc2ccccc21`, the GI50 in the test on BT-549 was 7.31 µM (inactive); with SF-268 it was 5.73 µM (inactive); in the test with T47D, 3.93 µM (inactive); with MDA-MB-231 it was 11.6 µM (inactive); in the test on MDA-MB-435, 4.48 µM (inactive); in the test on HT-29 it was 10.1 µM (inactive). The GI50 in the test on SK-MEL-28 was 10.9 µM (inactive); in the test on HOP-92 it was 22.3 µM (inactive); with K562, 12.2 µM (inactive); in the test on HCC 2998 it was 2.73 µM (inactive); with 786-0, 5.92 µM (inactive); in the test with NCI-H23, 4.47 µM (inactive). In addition, the GI50 in the test on RXF 393 is 1.24 µM (inactive); with MCF7, 3.69 µM (inactive); in the test with OVCAR-5, 16.5 µM (inactive); with LOX IMVI, 4.8 µM (inactive); with NCI-H460, 3.13 µM (inactive).
On to `CC(C)(C)OC(=O)NC(Cc1ccc(OCc2ccccc2)cn1)C(=O)N1CCCCC1` (stereo unspecified), for which the GI50 is 24.5 µM (inactive) in the test on BT-549; 65.6 µM (inactive) in the test on SF-268; 12.1 µM (inactive) in the test with T47D; 43.4 µM (inactive) in the test with MDA-MB-231; 19.4 µM (inactive) with MDA-MB-435; 32 µM (inactive) in the test with HT-29. Further, the GI50 was 54.3 µM (inactive) in the test on SK-MEL-28; 39.9 µM (inactive) with HOP-92; 31.7 µM (inactive) in the test on K562; 19.9 µM (inactive) in the test with HCC 2998; 56 µM (inactive) in the test with 786-0; 31.1 µM (inactive) in the test with NCI-H23. The GI50 is 19.5 µM (inactive) in the test with RXF 393; 31.6 µM (inactive) in the test with MCF7; 65.2 µM (inactive) with OVCAR-5; 25.4 µM (inactive) with LOX IMVI; 33.7 µM (inactive) in the test with NCI-H460.
As to `O=C1c2ccccc2C(=O)N1c1nc(-c2ccc(Cl)cc2)cc(N2N=C(c3ccc(Br)cc3)CC2c2ccccc2)n1` (stereo unspecified), the GI50 in the test on BT-549 was 3.21 µM (inactive); in the test with SF-268, 2.7 µM (inactive); with T47D it was 1.88 µM (inactive); in the test on MDA-MB-231 it was 4.07 µM (inactive); in the test on MDA-MB-435 it was 0.745 µM (active); with HT-29, 2.94 µM (inactive). Moreover, the GI50 in the test on SK-MEL-28 was 7.73 µM (inactive); in the test with HOP-92, 11.4 µM (inactive); in the test with K562 it was 3.08 µM (inactive); in the test with HCC 2998, 0.301 µM (active); with 786-0, 4.93 µM (inactive); in the test with NCI-H23, 5.37 µM (inactive). Moreover, the GI50 in the test with RXF 393 is 9.16 µM (inactive); in the test on MCF7, 1.3 µM (inactive); in the test with OVCAR-5, 1.04 µM (active); in the test on LOX IMVI it was 1.29 µM (inactive); in the test on NCI-H460 it was 4.36 µM (inactive).
As for `CCNC1=C(NC(=O)c2ccccc2)C(=O)c2ccccc2C1=O`, the GI50 is 90.4 µM (inactive) in the test with BT-549; 14.1 µM (inactive) in the test with T47D; 6.12 µM (inactive) in the test on MDA-MB-231; 7.21 µM (inactive) in the test on MDA-MB-435; 36.6 µM (inactive) with HT-29; 39.3 µM (inactive) with SK-MEL-28. Further, the GI50 was 55.6 µM (inactive) in the test with HOP-92; 45.4 µM (inactive) in the test on K562; 33 µM (inactive) in the test with HCC 2998; > 100 µM (inactive) with 786-0; 36.7 µM (inactive) in the test on NCI-H23; 24.2 µM (inactive) with RXF 393. The GI50 in the test on MCF7 was 32.1 µM (inactive); in the test on OVCAR-5, > 100 µM (inactive); in the test on NCI-H460 it was 39.4 µM (inactive).
In the case of `CC1=CC[C@](C)(O)[C@@]2(C)CC[C@H]3C(=C(C)C)C(=O)C[C@]3(C)C[C@H]12`, the GI50 with BT-549 was 13.8 µM (inactive); with SF-268, > 50 µM (inactive); with T47D, 28.9 µM (inactive); in the test with MDA-MB-231, > 50 µM (inactive); in the test on MDA-MB-435 it was 18.7 µM (inactive); with HT-29, 24.8 µM (inactive). In addition, the GI50 with SK-MEL-28 was > 50 µM (inactive); with HOP-92, > 50 µM (inactive); in the test on K562 it was 9.2 µM (inactive); with HCC 2998, > 50 µM (inactive); with 786-0, 15.7 µM (inactive); in the test with NCI-H23, 34.1 µM (inactive). Further, the GI50 in the test with RXF 393 was 30 µM (inactive); in the test with MCF7, 31.3 µM (inactive); with OVCAR-5, > 50 µM (inactive); in the test on LOX IMVI, 7.93 µM (inactive).
As to `O=C(O)c1nc2ccc(C(F)(F)F)cc2nc1NCc1ccc(F)cc1`, the GI50 in the test on BT-549 was 25.9 µM (inactive); in the test on T47D, 20.8 µM (inactive); with MDA-MB-231 it was 32.4 µM (inactive); in the test with MDA-MB-435 it was > 100 µM (inactive); in the test with SK-MEL-28, 40.8 µM (inactive); with HOP-92, 17.1 µM (inactive). The GI50 was 19.6 µM (inactive) in the test on K562; 22.8 µM (inactive) in the test with HCC 2998; 14.9 µM (inactive) with 786-0; 24 µM (inactive) in the test on NCI-H23; > 100 µM (inactive) with RXF 393; 22.9 µM (inactive) with MCF7. The results for the GI50 with OVCAR-5, in the test on LOX IMVI and in the test on NCI-H460 were 22.4 µM (inactive), 15.6 µM (inactive) and 19.4 µM (inactive), respectively.
In the case of `COC(=O)c1ccccc1C1CN=NC12Cc1ccc3ccccc3c1C2=O` (stereo unspecified), the GI50 with BT-549 was > 100 µM (inactive); in the test with SF-268 it was > 100 µM (inactive); with T47D, 21.1 µM (inactive); with MDA-MB-231 it was > 100 µM (inactive); in the test with MDA-MB-435, 30.7 µM (inactive); in the test with SK-MEL-28, > 100 µM (inactive). In addition, the GI50 in the test with HOP-92 was 97.9 µM (inactive); in the test with K562, > 100 µM (inactive); in the test with HCC 2998, > 100 µM (inactive); with 786-0, > 100 µM (inactive); with RXF 393, 78.3 µM (inactive); in the test on MCF7 it was > 100 µM (inactive). The GI50 in the test with OVCAR-5 is > 100 µM (inactive); with LOX IMVI, > 100 µM (inactive); in the test with NCI-H460 it was 80 µM (inactive).
